Experimental data reported in patent publication US7868006B2, “Heterocyclic substituted piperazines with CXCR3 antagonist activity” (Schering Corporation, priority 2005, dated 2011).

target: T1, human CXCR3 (N-delta 4) (Homo sapiens, UniProt P49682); assay: Human CXCR3 (N-delta 4) Scintillation Proximity Assay (SPA), [125I] IP-10 binding; conditions: Ba/F3-hCXCR3 (N-delta 4) membranes, 25 pM [125I] IP-10; read-out: IC50 value
T1 construct: CD8 leader (N); Flag tag (N); expressed in transfected cells; host or cells: mouse pro-B Ba/F3 cells, stably transfected with pME18Sneo-hCXCR3 (N-delta 4); membrane preparation
T1 sequence (P49682 5-368 limits assumed): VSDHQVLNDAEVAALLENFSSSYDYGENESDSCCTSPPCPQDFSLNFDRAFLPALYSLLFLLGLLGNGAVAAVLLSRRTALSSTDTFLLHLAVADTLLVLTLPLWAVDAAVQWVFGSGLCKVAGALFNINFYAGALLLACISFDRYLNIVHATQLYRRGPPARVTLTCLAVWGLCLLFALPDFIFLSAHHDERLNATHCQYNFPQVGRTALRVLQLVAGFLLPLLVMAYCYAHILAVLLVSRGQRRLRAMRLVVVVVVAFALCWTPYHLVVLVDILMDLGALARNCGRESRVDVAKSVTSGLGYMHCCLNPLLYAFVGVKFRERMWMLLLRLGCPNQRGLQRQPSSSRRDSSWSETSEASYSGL
Text: The inventive compounds can readily be evaluated to determine activity at The CXCR3 receptors by known methods, such as, for example, Development of Human CXCR3 (N-delta 4) Binding Assay.
Cloning and Expression of Human CXCR3 (N-delta 4):
The DNA encoding human CXCR3 was cloned by PCR using human genomic DNA (Promega, Madison, Wis.) as a template. The PCR primers were designed based on the published sequence of human orphan receptor GPR9 (1) with incorporated restriction sites, a Kozak consensus sequence, CD8 leader and Flag tag. The PCR product was subcloned into the mammalian expression vector pME18Sneo, a derivative of the SR-alpha expression vector (designated as pME18Sneo-hCXCR3 (N-delta 4).
IL-3-dependent mouse pro-B cells Ba/F3 were transfected by electroporation in 0.4 ml Dulbecco's PBS containing 4×10^6 cells with 20 μg of pME18Sneo-hCXCR3 (N-delta 4) plasmid DNA. Cells were pulsed at 400 Volts, 100 OHMs, 960 μFd. The transfected cells were under selection with 1 mg/ml G418 (Life Technologies, Gaithersburg, Md.). G418-resistant Ba/F3 clones were screened for CXCR3 expression by specific binding of [^125I] IP-10 (NEN Life Science Products, Boston, Mass.).
Preparation of Ba/F3-hCXCR3 (N-delta 4) Membranes:
Ba/F3 cells expressing human CXCR3 (N-delta 4) were pelleted and resuspended in the lysis buffer containing 10 mM HEPES, pH 7.5 and Complete® protease inhibitors (1 tablet per 100 ml) (Boehringer Mannheim, Indianapolis, Ind.) at a cell density of 20×10^6 cells per ml. After 5 minutes incubation on ice, cells were transferred to 4639 cell disruption bomb (Parr Instrument, Moline, Ill.) and applied with 1,500 psi of nitrogen for 30 minutes on ice. Large cellular debris was removed by centrifugation at 1,000×g. Cell membrane in the supernatant was sedimented at 100,000×g. The membrane was resuspended in the lysis buffer supplemented with 10% sucrose and stored at −80° C. Total protein concentration of the membrane was determined by BCA method from Pierce (Rockford, Ill.).
Human CXCR3 (N-delta 4) Scintillation Proximity Assay (SPA):
For each assay point, 2 μg of membrane was preincubated for 1 hr with 300 μg wheat germ agglutinin (WGA) coated SPA beads (Amersham, Arlington Heights, Ill.) in the binding buffer (50 mM HEPES, 1 mM CaCl2, 5 mM MgCl2, 125 mM NaCl, 0.002% NaN3, 1.0% BSA) at room temperature. The beads were spun down, washed once, resuspended in the binding buffer and transferred to a 96-well Isoplate (Wallac, Gaithersburg, Md.). 25 pM of [^125I] IP-10 with tested compounds in a series of titration were added to start the reaction. After 3 hr reaction at room temperature, the amount of [^125I] IP-10 bound to the SPA beads was determined with a Wallac 1450 Microbeta counter.
The Ki values for the various example compounds of the present invention are given in the afore-mentioned Table 1. From these values, it would be apparent to the skilled artisan that the compounds of the invention have excellent utility CXCR3 antagonists.

Row | IC50 [nM] | Compound
1 | 0.2 | CC[C@H]1CN(c2nc(N)c(-c3nnc(C)o3)nc2Cl)CCN1C1CCN(Cc2ccc(Cl)cc2/C(N)=N\O)CC1 [Compound 1]

same assay, conditions: IC50 rating; Ba/F3-hCXCR3 (N-delta 4) membranes, 25 pM [125I] IP-10; read-out: IC50

Row | IC50 [nM] | Compound
2 | < 25 | CC[C@H]1CN(c2nc(N)c(-c3nnc(C)o3)nc2Cl)CCN1C1CCN(Cc2ccc(Cl)cc2/C(N)=N\O)CC1 [Compound 1]
3 | < 25 | CC[C@H]1CN(c2nc(N)c(-c3nnc(CO)o3)nc2Cl)CCN1C1CCN(Cc2ccc(Cl)cc2/C(N)=N\O)CC1 [Compound 2]
4 | < 25 | CC[C@H]1CN(c2nc(N)c(-c3nnc(CO)o3)nc2Cl)CCN1C1CCN([C@@H](CO)c2ccc(Cl)cc2)CC1 [Compound 6]
5 | < 25 | CC[C@H]1CN(c2nc(N)c(-c3nnc(C)o3)nc2Cl)CCN1C1CCN(Cc2ccc(Cl)cc2C(N)=O)CC1 [Compound 8]
6 | < 25 | CC[C@H]1CN(c2nc(N)c(-c3nnc(NC(C)C)o3)nc2Cl)CCN1C1CCN(C(=O)c2ccc(Cl)nc2N)CC1 [Compound 11]
7 | < 25 | CCNc1nnc(-c2cnc(N3CCN(C4CCN(C(=O)c5ccc(Cl)nc5N)CC4)[C@@H](CC)C3)c(C)n2)s1 [Compound 13]
8 | < 25 | CCNc1nnc(-c2nc(Cl)c(N3CCN(C4CCN(C(=O)c5ccc(Cl)nc5N)CC4)[C@@H](CC)C3)nc2N)o1 [Compound 14]
9 | < 25 | CC[C@H]1CN(c2nc(N)c(-c3nnc(N)o3)nc2Cl)CCN1C1CCN(Cc2ccc(Cl)nc2)CC1 [Compound 15]
10 | < 25 | CC[C@H]1CN(c2nc(N)c(-c3nnc(N)o3)nc2Cl)CCN1C1CCN(C(=O)c2ccc(Cl)nc2N)CC1 [Compound 17]
11 | < 25 | CCNc1nnc(-c2cnc(N3CCN(C4CCN(C(=O)c5ccc(Cl)nc5N)CC4)[C@@H](CC)C3)c(Cl)n2)s1 [Compound 18]
12 | < 25 | CC[C@H]1CN(c2nc(N)c(-c3nnc(C)o3)nc2Cl)CCN1C1CCN(C(=O)c2ccc(Cl)nc2N)CC1 [Compound 23]
13 | < 25 | CC[C@H]1CN(c2nc(N)c(-c3nnc(CO)o3)nc2Cl)CCN1C1CCN(C(=O)c2ccc(Cl)nc2N)CC1 [Compound 25]
14 | < 25 | CC[C@H]1CN(c2nc(N)c(-c3nnc(NCC(=O)OC)o3)nc2Cl)CCN1C1CCN(C(=O)c2ccc(Cl)nc2N)CC1 [Compound 26]
15 | < 25 | CC[C@H]1CN(c2nc(N)c(-c3nnc(N(C)C)o3)nc2Cl)CCN1C1CCN(Cc2ccc(Cl)cc2)CC1 [Compound 29]
16 | < 25 | CC[C@H]1CN(c2ncc(-c3nnc(C)o3)nc2Cl)CCN1C1CCN(C(=O)c2ccc(Cl)cc2)CC1 [Compound 32]
17 | < 25 | CC[C@H]1CN(c2ncc(-c3nnc(C)o3)nc2Cl)CCN1C1CCN(C(=O)c2cc(F)c(Cl)nc2Cl)CC1 [Compound 33]
18 | < 25 | CC[C@H]1CN(c2nc(N)c(-c3nnc(N)o3)nc2Cl)CCN1C1CCN(C(=O)c2ccc(Cl)cc2)CC1 [Compound 36]
19 | < 25 | CC[C@H]1CN(c2nc(N)c(-c3nnc(CNC(=O)C(F)(F)F)o3)nc2Cl)CCN1C1CCN(C(=O)c2ccc(Cl)nc2N)CC1 [Compound 46]

Further lines, the molecule ahead of its results:

Row | Compound | IC50 [nM]
20 | CC[C@H]1CN(c2nc(N)c(-c3nnc(N)o3)nc2Cl)CCN1C1CCN(Cc2ccc(Cl)cc2F)CC1 [Compound 3] | < 25
21 | CC[C@H]1CN(c2nc(N)c(-c3nnc(C)o3)nc2Cl)CCN1C1CCN(Cc2ccc(Cl)cc2)CC1 [Compound 4] | < 25
22 | CC[C@H]1CN(c2nc(N)c(-c3nnc(C)o3)nc2Cl)CCN1C1CCN([C@@H](CO)c2ccc(Cl)cc2)CC1 [Compound 5] | < 25
23 | CC[C@H]1CN(c2nc(N)c(-c3nnc(C)o3)nc2Cl)CCN1C1CCN(Cc2ccc(Cl)c(OCCS(C)(=O)=O)c2)CC1 [Compound 7] | < 25
24 | CC[C@H]1CN(c2nc(N)c(-c3nnc(N)o3)nc2Cl)CCN1C1CCN(Cc2ccc(C#N)cc2)CC1 [Compound 9] | < 25
25 | CCNc1nnc(-c2cnc(N3CCN(C4CCN(C(=O)c5ccc(Cl)nc5N)CC4)[C@@H](CC)C3)c(Cl)n2)o1 [Compound 10] | < 25
26 | CCCNc1nnc(-c2nc(Cl)c(N3CCN(C4CCN(C(=O)c5ccc(Cl)nc5N)CC4)[C@@H](CC)C3)nc2N)o1 [Compound 12] | < 25
27 | CCNc1nnc(-c2cnc(N3CCN(C4CCN(C(=O)c5ccc(Cl)nc5N)CC4)[C@@H](CC)C3)c(C)n2)o1 [Compound 16] | < 25
28 | CC[C@H]1CN(c2nc(N)c(-c3nnc(C)o3)nc2Cl)CCN1C1CCN(C(=O)c2cc(F)c(Cl)nc2N)CC1 [Compound 19] | < 25
29 | CCNc1nnc(-c2nc(Cl)c(N3CCN(C4CCN(C(=O)c5ccc(Cl)cc5)CC4)[C@@H](CC)C3)nc2N)o1 [Compound 20] | < 25
30 | CC[C@H]1CN(c2ncc(-c3nnc(C)o3)nc2C)CCN1C1CCN(C(=O)c2ccc(Cl)cc2N)CC1 [Compound 21] | < 25
31 | CC[C@H]1CN(c2nc(N)c(C3=NCCN3)nc2Cl)CCN1C1CCN(C(=O)c2ccc(Cl)nc2N)CC1 [Compound 24] | < 25
32 | CC[C@H]1CN(c2ncc(C3=NCCN3)nc2Cl)CCN1C1CCN(C(=O)c2ccc(Cl)nc2N)CC1 [Compound 27] | < 25
33 | CC[C@H]1CN(c2nc(N)c(-c3nnc(C(C)(C)O)o3)nc2Cl)CCN1C1CCN(Cc2ccc(Cl)cc2)CC1 [Compound 28] | < 25
34 | CC[C@H]1CN(c2nc(N)c(-c3nnc(N)[nH]3)nc2Cl)CCN1C1CCN(C(=O)c2ccc(Cl)nc2N)CC1 [Compound 30] | < 25
35 | CC[C@H]1CN(c2nc(N)c(-c3nnc(C)o3)nc2Cl)CCN1C1CCN(C(=O)c2cc(F)c(Cl)nc2Cl)CC1 [Compound 31] | < 25
36 | CC[C@H]1CN(c2nc(N)c(-c3nnc(CN)o3)nc2Cl)CCN1C1CCN(C(=O)c2ccc(Cl)nc2N)CC1 [Compound 34] | < 25
37 | CC[C@H]1CN(c2ncc(-c3nnc(C)o3)nc2C)CCN1C1CCN(C(=O)c2ccc(Cl)nc2N)CC1 [Compound 35] | < 25
38 | CC[C@H]1CN(c2ncc(-c3nnc(C)[nH]3)nc2Cl)CCN1C1CCN(C(=O)c2ccc(Cl)nc2N)CC1 [Compound 37] | < 25
39 | CC[C@H]1CN(c2ncc(-c3nc[nH]n3)nc2C)CCN1C1CCN(C(=O)c2ccc(Cl)nc2N)CC1 [Compound 38] | < 25
40 | CC[C@H]1CN(c2nc(N)c(-c3nnc(C(N)=O)o3)nc2Cl)CCN1C1CCN(C(=O)c2ccc(Cl)nc2N)CC1 [Compound 40] | < 25
41 | CC[C@H]1CN(c2nc(N)c(-c3nnc(NCCO)o3)nc2Cl)CCN1C1CCN(C(=O)c2ccc(Cl)nc2N)CC1 [Compound 41] | < 25
42 | CCNC(=O)Nc1nnc(-c2nc(Cl)c(N3CCN(C4CCN(C(=O)c5ccc(Cl)nc5N)CC4)[C@@H](CC)C3)nc2N)o1 [Compound 42] | < 25
43 | CC[C@H]1CN(c2nc(N)c(-c3nnc(C)o3)nc2Cl)CCN1C1CCN(C(=O)c2ccc(Cl)cc2)CC1 [Compound 43] | < 25
44 | CC[C@H]1CN(c2ncc(-c3n[nH]c(N)n3)nc2C)CCN1C1CCN(C(=O)c2ccc(Cl)nc2N)CC1 [Compound 44] | < 25
45 | CC[C@H]1CN(c2nc(N)c(-c3nnc(CO)o3)nc2Cl)CCN1C1CCN(Cc2ccc(Cl)cc2C#N)CC1 [Compound 45] | < 25
46 | CC[C@H]1CN(c2nc(N)c(-c3nnc(CO)o3)nc2Cl)CCN1C1CCN([C@@H](C(=O)OC)c2ccc(Cl)cc2)CC1 [Compound 47] | < 25
47 | CC[C@H]1CN(c2nc(N)c(-c3nnc(C)o3)nc2Cl)CCN1C1CCN(Cc2ccc(Cl)cc2C#N)CC1 [Compound 48] | < 25
48 | CC[C@H]1CN(c2ncc(-c3nc[nH]n3)nc2C)CCN1C1CCN(C(=O)c2ccc(Cl)cc2)CC1 [Compound 49] | < 25
